Results published in US8580814B2, “Methods of using (+)-1,4-dihydro-7-[(3S,4S)-3-methoxy-4-(methylamino)-1-pyrrolidinyl]-4- oxo-1-(2-thiazolyl)-1,8-naphthyridine-3-carboxylic acid for treatment of cancer” (priority 2006, dated 2013).
Where “and” joins values, the source holds several entries; their conditions need not be identical. Equal entries are not always repeated. Marks after values point to notes of the source that are not given here.

Experiments:
[1] = test system: LM3-Jck human malignant lymphoma tumor; assay: LM3-Jck xenograft model; assay type: in vivo, nude mice; conditions: for IR (%) (tumor inhibition rate): LM3-JcK, q7d X3, IV; for Survival Ratio: nude, mouse, in vivo, iv, 21 days
Description: LM3-Jck human malignant lymphoma tumor lobes (2-3 mm square) were transplanted subcutaneously into nude mice. Tumors were allowed to grow to approximately 7-14 mm in diameter. […] Acceptable toxicity was defined as a mean group weight loss of 30% or less and not more than one toxic death among 6 treated animals. Anti-tumor activities of the drugs were assessed 21 days after the start of administration.

refractory solid tumors = assay: Clinical activity in patients with advanced solid tumors; assay type: in vivo, human; design: key to Best Response: partial response (PR); stable disease SD; Partial/Minor Responses (PR/MR); conditions: for Iliac node: Baseline 5.5; for RMLL Lung / Rectosigmoid: Baseline 2.5; for RML Lung: Baseline 3.9; for RUL Lung: Baseline 4.7; for Liver met: Baseline 7.4
Description: The administered dose of SNS-595 can be delivered as a single dose such as, for example, an IV push of 10-15 minutes duration (e.g. a single bolus injection) or over time such as, for example, a 24-hour period (e.g., continuous infusion over time or divided bolus doses over time) and is repeated as necessary, for example, until the patient experiences stable disease or regression, or until the patient experiences disease progression or unacceptable toxicity. For example, stable disease for solid tumors generally means that the perpendicular diameter of measurable lesions has not increased by 25% or more from the last measurement. See e.g., Response Evaluation Criteria in Solid Tumors (RECIST) Guidelines, Journal of the National Cancer Institute 92(3): 205-216 (2000). Stable disease or lack thereof is determined by methods known in the art such as evaluation of patient symptoms, physical examination, visualization of the tumor that has been imaged using X-ray, CAT, PET, or MRI scan and other commonly accepted evaluation modalities.
SNS-595 was administered to patients with advanced solid cancers as an IV infusion over 10 minutes on 2 schedules. In the first schedule (A), a weekly dose of SNS-595 was administered for three weeks followed by at least 7 days off (qwk×3). In the second schedule (B), a dose of SNS-595 was administered once every three weeks (q3wk).
In both schedules, the starting dose of SNS-595 was 3 mg/m^2, and doses were escalated by sequential cohorts of 3. The doses were doubled until the first related adverse event at or above Grade 2 or until the first abnormal lab value. The doses were then escalated by a modified Fibonacci schema.
In study A, 21 patients (9 male, 12 female) were treated in 6 cohorts (dose range 3-24 mg/m^2/wk). In study B, 41 (25 male, 16 female) patients were treated in 9 cohorts (dose range 3-75 mg/m^2/wk). The median ages were 61 yrs (Study A) and 59 yrs (Study B), sex 12F/9M (Study A), 16F/25M (Study B), all patients had baseline European Cooperative Oncology Group Performance Status (ECOG PS) 0-2. Patient eligibility included refractory solid tumors and adequate organ function.

[2] = both studies, advanced solid cancers
[3] = initial dosage 3 mg/m^2, q3wk, Lung
[4] = initial dosage 6 mg/m^2, q3wk, Renal Cell
[5] = initial dosage 6 mg/m^2, qwk x3, Renal Cell
[6] = initial dosage 12 mg/m^2, q3wk, Lung
[7] = initial dosage 12 mg/m^2, qwk x3, Leiomyosarcoma
[8] = initial dosage 12 mg/m^2, qwk x3, Melanoma
[9] = initial dosage 15 mg/m^2, qwk x3, Mesothelioma (two patients)
[10] = initial dosage 15 mg/m^2, qwk x3, Nasopharyngeal
[11] = initial dosage 24 mg/m^2, q3wk, Adenocarcinoma (unknown origin)
[12] = initial dosage 24 mg/m^2, qwk x3, Salivary Gland
[13] = initial dosage 36 mg/m^2, q3wk, Colon
[14] = initial dosage 36 mg/m^2, q3wk, Ovarian
[15] = initial dosage 48 mg/m^2, q3wk, Lung
[16] = initial dosage 48 mg/m^2, q3wk, Ovarian (two patients)
[17] = initial dosage 60 mg/m^2, q3wk, Neuroendocrine
[18] = initial dosage 60 mg/m^2, q3wk, Ovarian
[19] = initial dosage 75 mg/m^2, q3wk, Müllerian

CN[C@H]1CN(c2ccc3c(=O)c(C(=O)O)cn(-c4nccs4)c3n2)C[C@@H]1OC [SNS-595, (+)-1,4-dihydro-7-[(3S,4S)-3-methoxy-4-(methylamino)-1-pyrrolidinyl]-4-oxo-1-(2-thiazolyl)-1,8-naphthyridine-3-carboxylic acid]
antitumor activity against LM-3 Jck malignant lymphoma ([1]; 20 and 25 mg/kg): strong antitumor activity with complete tumor regressions | IR (%) (tumor inhibition rate) ([1]; 20 mg/kg): 98.9* % | IR (%) (tumor inhibition rate) ([1]; 25 mg/kg): 98.5* % | Survival Ratio ([1]; 20 mg/kg): 6/6 | Survival Ratio ([1]; 25 mg/kg): 6/6 | P-aortic node (refractory solid tumors; PR patient, Ovarian, C2, Baseline 1.7): 1.6 cm | Aortic node (refractory solid tumors; PR patient, Ovarian, C2, Baseline 2.4): 2.0 cm | Iliac node (refractory solid tumors; PR patient, Ovarian, C2): 5.0 cm | CA125 (refractory solid tumors; PR patient, Ovarian, C2, Baseline 467): 272 U/mL | P-aortic node (refractory solid tumors; PR patient, Ovarian, C4, Baseline 1.7): 1.5 cm | Aortic node (refractory solid tumors; PR patient, Ovarian, C4, Baseline 2.4): 2.2 cm | Iliac node (refractory solid tumors; PR patient, Ovarian, C4): 4.7 cm | CA125 (refractory solid tumors; PR patient, Ovarian, C4, Baseline 467): 176 U/mL | P-aortic node (refractory solid tumors; PR patient, Ovarian, C6, Baseline 1.7): 1.3 cm | Aortic node (refractory solid tumors; PR patient, Ovarian, C6, Baseline 2.4): 2.0 cm | Iliac node (refractory solid tumors; PR patient, Ovarian, C6): 3.9 cm | CA125 (refractory solid tumors; PR patient, Ovarian, C6, Baseline 467): 120 U/mL | RMLL Lung (refractory solid tumors; SD (MR) patient, Müllerian, C2): 2.5 cm | RML Lung (refractory solid tumors; SD (MR) patient, Müllerian, C2): 3.9 cm | RUL Lung (refractory solid tumors; SD (MR) patient, Müllerian, C2): 4.5 cm | RMLL Lung (refractory solid tumors; SD (MR) patient, Müllerian, C4): 2.5 cm | RML Lung (refractory solid tumors; SD (MR) patient, Müllerian, C4): 3.7 cm | RUL Lung (refractory solid tumors; SD (MR) patient, Müllerian, C4): 4.5 cm | RMLL Lung (refractory solid tumors; SD (MR) patient, Müllerian, C6): 2.6 cm | RML Lung (refractory solid tumors; SD (MR) patient, Müllerian, C6): 2.4 cm | RUL Lung (refractory solid tumors; SD (MR) patient, Müllerian, C6): 5.0 cm | Left upper lobe nodule (refractory solid tumors; SD (MR) patient, Nasopharyngeal, C2, Baseline 1.1): 1.0 cm | Rt upper lobe nodule 2 (refractory solid tumors; SD (MR) patient, Nasopharyngeal, C2, Baseline 1.5): 1.3 cm | Lingular nodule (refractory solid tumors; SD (MR) patient, Nasopharyngeal, C2, Baseline 1.6): 1.5 | Rt upper lobe nodule 1 (refractory solid tumors; SD (MR) patient, Nasopharyngeal, C2, Baseline 2.3): 1.5 cm | Aortic node (refractory solid tumors; SD (MR) patient, Ovarian (first), C2, Baseline 1.7): 1.5 cm | P-aortic node (refractory solid tumors; SD (MR) patient, Ovarian (first), C2, Baseline 1.8): 1.1 cm | Liver met (refractory solid tumors; SD (MR) patient, Ovarian (first), C2): 6.9 cm | CA125 (refractory solid tumors; SD (MR) patient, Ovarian (first), C2, Baseline 567): 811 U/mL | Aortic node (refractory solid tumors; SD (MR) patient, Ovarian (first), C4, Baseline 1.7): 1.2 cm | P-aortic node (refractory solid tumors; SD (MR) patient, Ovarian (first), C4, Baseline 1.8): 1.1 cm | Liver met (refractory solid tumors; SD (MR) patient, Ovarian (first), C4): 5.7 cm | CA125 (refractory solid tumors; SD (MR) patient, Ovarian (first), C4, Baseline 567): 419 U/mL | Aortic node (refractory solid tumors; SD (MR) patient, Ovarian (first), C6, Baseline 1.7): 1.8 cm | P-aortic node (refractory solid tumors; SD (MR) patient, Ovarian (first), C6, Baseline 1.8): 1.2 cm | Liver met (refractory solid tumors; SD (MR) patient, Ovarian (first), C6): 5.7 cm | CA125 (refractory solid tumors; SD (MR) patient, Ovarian (first), C6, Baseline 567): 274 U/mL | 3 mets (refractory solid tumors; SD (MR) patient, Ovarian (second)): 3 mets unchanged | Rectosigmoid (refractory solid tumors; SD (MR) patient, Ovarian (second), C2): 0.0 cm | CA125 (refractory solid tumors; SD (MR) patient, Ovarian (second), C2, Baseline 50): 18 U/mL | Rectosigmoid (refractory solid tumors; SD (MR) patient, Ovarian (second), C4): 0.0 cm | CA125 (refractory solid tumors; SD (MR) patient, Ovarian (second), C4, Baseline 50): 16 U/mL | Rectosigmoid (refractory solid tumors; SD (MR) patient, Ovarian (second), C6): 0.0 cm | CA125 (refractory solid tumors; SD (MR) patient, Ovarian (second), C6, Baseline 50): 15 U/mL | Best Response (refractory solid tumors; Table 11, Müllerian): SD (MR) | Best Response (refractory solid tumors; Table 11, Nasopharyngeal): SD (MR) | Best Response (refractory solid tumors; Table 11, Ovarian (three patients)): SD (MR) and PR | patients that achieved partial responses (refractory solid tumors; [2]): two patients | patients that achieved stable disease for over sixteen weeks (refractory solid tumors; [2]): seventeen patients | Best Response (refractory solid tumors; [3]): SD | Weeks on Therapy (refractory solid tumors; [3]): 18 Weeks | Best Response (refractory solid tumors; [4]): SD | Weeks on Therapy (refractory solid tumors; [4]): 18 Weeks | Best Response (refractory solid tumors; [5]): SD | Weeks on Therapy (refractory solid tumors; [5]): 16 Weeks | Best Response (refractory solid tumors; [6]): SD | Weeks on Therapy (refractory solid tumors; [6]): 53 Weeks | Best Response (refractory solid tumors; [7]): SD | Weeks on Therapy (refractory solid tumors; [7]): 16 Weeks | Best Response (refractory solid tumors; [8]): SD | Weeks on Therapy (refractory solid tumors; [8]): 16 Weeks | Best Response (refractory solid tumors; [9]): PR and SD | Weeks on Therapy (refractory solid tumors; [9]): 28 Weeks and 18 Weeks | Best Response (refractory solid tumors; [10]): SD | Weeks on Therapy (refractory solid tumors; [10]): 16 Weeks | Best Response (refractory solid tumors; [11]): SD | Weeks on Therapy (refractory solid tumors; [11]): 18 Weeks | Best Response (refractory solid tumors; [12]): SD | Weeks on Therapy (refractory solid tumors; [12]): 24 Weeks | Best Response (refractory solid tumors; [13]): SD | Weeks on Therapy (refractory solid tumors; [13]): 33 Weeks | Best Response (refractory solid tumors; [14]): SD | Weeks on Therapy (refractory solid tumors; [14]): 18 Weeks | Best Response (refractory solid tumors; [15]): SD | Weeks on Therapy (refractory solid tumors; [15]): 46 Weeks | Best Response (refractory solid tumors; [16]): PR and SD | Weeks on Therapy (refractory solid tumors; [16]): 24 Weeks and 30 Weeks | Best Response (refractory solid tumors; [17]): SD | Weeks on Therapy (refractory solid tumors; [17]): 58 Weeks | Best Response (refractory solid tumors; [18]): SD | Weeks on Therapy (refractory solid tumors; [18]): 33 Weeks | Best Response (refractory solid tumors; [19]): SD | Weeks on Therapy (refractory solid tumors; [19]): 46 Weeks | stable disease SD, range (refractory solid tumors; study A (qwk×3)): 16-24 wks | patients that achieved partial response (PR) (refractory solid tumors; study A (qwk×3), 21 patients): one patient | patients that achieved stable disease SD (refractory solid tumors; study A (qwk×3), 21 patients): six | patients with PR as best response (refractory solid tumors; study B (q3wk), 41 patients): one PR | patients with SD as best response (refractory solid tumors; study B (q3wk), 41 patients): 11
